Tests used:
[1] = biological target: Human immunodeficiency virus type 1 protease (Human immunodeficiency virus 1) (UniProt Q72874); test: The compound was evaluated for irreversible inhibition of HIV-1 protease at 20 uM
[2] = biological target: Human immunodeficiency virus type 1 protease (Human immunodeficiency virus 1) (UniProt Q72874); test: The compound was evaluated for irreversible inhibition of HIV-1 protease
[3] = Bimolecular rate constant is the ratio of Vinact/Kinact
[4] = biological target: Human immunodeficiency virus type 1 protease (Human immunodeficiency virus 1) (UniProt Q72874); test: The compound was evaluated for irreversible inhibition of HIV-1 protease at pH 6.5
[5] = biological target: Human immunodeficiency virus type 1 protease (Human immunodeficiency virus 1) (UniProt Q72874); test: Maximal inactivation rate towards HIV-1 protease was evaluated

inhibition [1] [%] | K inact [2] [µM] | SMILES | also measured
22 | – | COC(=O)C(NC(=O)[C@@H]1O[C@@H]1COc1ccc([N+](=O)[O-])cc1)C(C)C (some centres not stated) | –
19 | – | COC(=O)C(CC(C)C)NC(=O)[C@@H]1O[C@@H]1CCc1ccccc1 (some centres not stated) | –
– | 65 | O=C(OCC1c2ccccc2-c2ccccc21)N1CCC2OC2C1 (configuration not stated) | –
– | 0.075 | CC(C)C(NC(=O)OCc1ccccc1)C(=O)N[C@@H](Cc1ccccc1)[C@@H]1O[C@@H]1[C@H](Cc1ccccc1)NC(=O)C(NC(=O)OCc1ccccc1)C(C)C (some centres not stated) | –
– | 20 | CC(C)C[C@@H]1O[C@@H]1[C@H](Cc1ccccc1)NC(=O)[C@H](C)NC(=O)[C@H](Cc1ccccc1)NC(=O)OCc1ccccc1 | –
88 | – | CC(C)C(NC(=O)OCc1ccccc1)C(=O)OC[C@@H]1O[C@@H]1COc1ccc([N+](=O)[O-])cc1 (some centres not stated) | Ratio [3]: 140000 M⁻¹ min⁻¹; K inact [4]: 1.8 µM; Vinact [5]: 0.26 min⁻¹
30 | – | COC(=O)C(CC(C)C)NC(=O)[C@@H]1O[C@@H]1COc1ccc([N+](=O)[O-])cc1 (some centres not stated) | –
25 | – | CC(C)C(NC(=O)OCc1ccccc1)C(=O)NC(C(=O)OC[C@@H]1O[C@@H]1COc1ccc([N+](=O)[O-])cc1)C(C)C (some centres not stated) | –
– | 11000 | O=[N+]([O-])c1ccc(OCC2CO2)cc1 (configuration not stated) | –

— ChEMBL document CHEMBL1149993, “Simple cis-epoxide-based inhibitors of HIV-1 protease” (Bioorg Med Chem Lett, 1997)
